{"source": "paper PMC12270663", "about": "“Cagrilintide lowers bodyweight through brain amylin receptors 1 and 3” (eBioMedicine, 2025)", "key": {"[1]": {"tested_on": "WT and RAMP1/3 KO high fat diet fed mice", "assay": "Study 3: body composition by EchoMRI", "assay_type": "in vivo, mouse", "conditions": "150 nmol/kg/d s.c., 3 weeks", "procedure": "(§1) Mice were s.c. injected once a day for 3 weeks 1 h before dark onset between 9.00 and 10.00 h. Prior to injection, daily body weight and food intake were measured manually. On the day of sacrifice, mice were anesthetised with pentobarbital (100 mg/kg, i.p., Cantonal Pharmacy of Zurich, Switzerland) 24 h after receiving the last dose of peptide.\nBrains were harvested, snap frozen on dry ice and kept at −80 °C until mRNA extraction for next-generation sequencing (NGS) analysis. Blood samples were collected from the right ventricle of the heart during the sacrifice in 1 mL EDTA-coated tubes containing dipeptidyl peptidase-4 inhibitor (10 μL/mL blood; Sigma Aldrich, Switzerland, cat# DPP4-010) and protease inhibitor (30 μL/mL blood; Sigma Aldrich, Switzerland, cat# P2714). After centrifugation, plasma was kept at −80 °C. The mice were stored at −20 °C until body composition analysis was performed.\nLean and fat mass were measured post-mortem using EchoMRI (EchoMRI LLC, USA) at the Zurich Integrative Rodent Physiology (University of Zurich). Calibrations and measurements were performed according to manufacturer's instructions. Two measurements were performed and averaged per mouse. Fat mass and lean mass values are expressed as percent of body weight."}, "[2]": {"tested_on": "WT and RAMP1/3 KO high fat diet fed mice", "assay": "Study 3: 3-week treatment, food intake and body weight", "assay_type": "in vivo, mouse", "procedure": "Male mice were housed in a controlled environment maintained at 21 ± 2 °C, under a 12/12 h light–dark cycle (lights off at 11.00 h). Mice had ad libitum access to standard chow (3.14 kcal/g of food; Kliba, Switzerland, cat# 3436) and water, until 3–4 weeks old. Twenty-four WT and twenty-four RAMP 1/3 KO male mice were fed a 60% fat HFD (5.24 kcal/g of food; SSNIFF Spezialdiäten GmbH, Germany, cat# EF D12452) provided ad libitum for 18 weeks. Then mice were fed to a 45% fat HFD (4.73 kcal/g of food; SSNIFF Spezialdiäten GmbH, Germany, cat# EF D12451) provided ad libitum for 6 weeks until the end of the study. The mice were group housed (3–4 mice per cage) until 1 week before the 21-day treatment period. Each cage was equipped with a red plastic house, tissue paper, nest-building material and wood shavings. Prior to the 21-day treatment, mice were injected with vehicle for three days to acclimate to the daily subcutaneous injections and reduce stress associated with the injections.\nas §1"}, "AMYRs and CTR": {"tested_on": "AMYRs and CTR", "conditions": "cited from earlier work", "excerpt": "In a cellular assay, cagrilintide was confirmed to be a non-selective agonist of the CTR and AMYRs across multiple assays of proximal ..."}, "[3]": {"tested_on": "area postrema (AP) neurons of WT and RAMP1/3 KO mice", "assay": "Study 4 cohort 1: cFos positive neurons, AP", "assay_type": "in vivo, mouse", "conditions": "second statistical test, Figure 4b", "procedure": "Mice were group housed in a controlled environment maintained at 21 ± 2 °C, under a 12/12 h light–dark cycle (lights off at 11.00 h). In the first cohort, 25 male WT and 25 male RAMP1/3 KO mice aged between 12 and 20 week-old were fed chow diet and maintained under group housing condition. In the second cohort, 18 male WT, 18 male RAMP1 KO, 18 male RAMP3 KO and 18 male RAMP1/3 KO mice aged between 10 and 15 week-old were fed chow diet and maintained under group housing condition.\nFor both cohorts, animals were deeply anesthetised 90 min later (pentobarbital 100 mg/kg, i.p) and transcardially perfused with cold 0.1 M of phosphate buffer (PB) for 1.5 min followed by 4% of paraformaldehyde (PFA) in PB for 2.5 min. Brains were removed and postfixed overnight in 4% of PFA and cryoprotected in 20% of sucrose-PB for 24 h. Brains were frozen in hexane on dry ice and stored at −80 °C until sectioning. Stereological brain sampling of the areas of interest was performed and brain were serially cut on a cryostat (Leica Biosystems, Germany, cat# CM3050S), mounted on Superfrost Plus slides (Thermo Fisher Scientific, Reinach, Switzerland), and cryoprotected in 50% of PB, 30% of ethylene glycol, 20% of glycerol, and subsequently stored at −20 °C.\nBlocking of the mouse brain sections was performed with 0.4% Triton–4% normal goat serum in PBS for 2 h at room temperature. AP/NTS and LPBN sections were incubated at 4 °C for 48 h with rabbit anti-Fos antibody (1:500, Cell signalling technology, Switzerland, Cat# 2250, RRID: AB_2247211), and then after PBS washes, incubated with goat anti-rabbit Alexa Fluor CY3 (1:200, LuBio Science GmbH, Switzerland for Jackson Immunoresearch, Cat# 111-165-144) or alexa fluor 488 for 2 h at room temperature. After thorough washing in PBS, the sections were counterstained with DAPI, mounted immediately and coverslipped with Vectashield antifade Mounting Medium (Vectorlabs, Burlingame, USA, cat# H-1400).[40]\nPhotomicrographs of all sections containing AP, NTS and LPBN were taken at 20× magnification using Zeiss Axio Scan.Z1 slidescanner (Center for Microscopy and Image Analysis UZH, Zeiss, Germany). All images for each study were acquired using the same exposure time. Scanned images were imported into QuPath (QuPath 0.5.0) for quantification. Three to four sections were counted and averaged per area of interest. A polygon tool was used manually to determine the boundary of the region of interest of the brain section. A cell detection tool was used to detect every cell in the section by using a built-in cell segmentation algorithm. The cell detection tool was used on the DAPI channel to make sure that only a cell was recognised and not the background or artefact by system. A detection classifier was created by using the create detection classifier function. The numbers of positive counted DAPI cells containing a cFos signal were automatically counted within the region. The experimental group was blinded to the experimenter during the analysis."}}, "data": [{"compound": "CC(C)C[C@H](NC(=O)[C@H](CCCCN)NC(=O)CNC(=O)[C@H](CC(C)C)NC(=O)[C@@H](NC(=O)[C@@H]1CSSC[C@H](N)C(=O)N[C@@H](CO)C(=O)N[C@@H](CC(N)=O)C(=O)N[C@@H](CC(C)C)C(=O)N[C@@H](CO)C(=O)N[C@@H]([C@@H](C)O)C(=O)N1)C(C)C)C(=O)N[C@@H](CO)C(=O)N[C@@H](CCC(N)=O)C(=O)N[C@@H](CCC(=O)O)C(=O)N[C@@H](CC(C)C)C(=O)N[C@@H](Cc1c[nH]cn1)C(=O)N[C@@H](CCCCN)C(=O)N[C@@H](CC(C)C)C(=O)N[C@@H](CCC(N)=O)C(=O)N[C@H](C(=O)N[C@@H](Cc1ccc(O)cc1)C(=O)N1CCC[C@H]1C(=O)N[C@@H](CCCNC(=N)N)C(=O)N[C@H](C(=O)N[C@@H](CC(N)=O)C(=O)N[C@H](C(=O)NCC(=O)N[C@@H](CO)C(=O)NCC(=O)N[C@H](C(=O)N1CCC[C@H]1C(N)=O)[C@@H](C)O)[C@@H](C)O)[C@@H](C)O)[C@@H](C)O", "note": "[sCT, salmon calcitonin]", "values": [{"measurement": "reduction of relative lean mass in KO mice compared to WT", "setting": "[1]", "result": 15, "unit": "%"}, {"measurement": "effect on body composition", "setting": "[1]; WT mice", "result": "no effect"}, {"measurement": "acute anorectic effect on day 1", "setting": "[2]; RAMP1/3 KO mice, cagrilintide 3, sCT 150 nmol/kg s.c.", "result": "no effect"}, {"measurement": "weight gain on subchronic treatment", "setting": "[2]; WT mice, 150 nmol/kg/d s.c.", "result": "approx. 2 g"}, {"measurement": "Food intake on Day 1", "setting": "[2]; WT mice, cagrilintide 3, sCT 150 nmol/kg s.c., mean ± SEM, n = 7–8/group", "result": "1.5 ± 0.2", "unit": "g"}, {"measurement": "residence time (dissociation)", "setting": "AMYRs and CTR; comparable for all AMYRs / all receptors", "result": "45 to 60", "unit": "min"}, {"measurement": "Predicted (LS) mean diff., AP cFos after square root transformation", "setting": "[3]; RAMP 1/3 KO, Vehicle vs. sCT (3 nmol/kg), Tukey", "result": -8.457}, {"measurement": "Predicted (LS) mean diff., AP cFos after square root transformation", "setting": "[3]; RAMP 1/3 KO, Vehicle vs. sCT (150 nmol/kg), Tukey", "result": -9.262}, {"measurement": "Predicted (LS) mean diff., AP cFos after square root transformation", "setting": "[3]; RAMP 1/3 KO, sCT (3 nmol/kg) vs. Cagrilintide (3 nmol/kg), Tukey", "result": 4.579}, {"measurement": "Predicted (LS) mean diff., AP cFos after square root transformation", "setting": "[3]; RAMP 1/3 KO, sCT (3 nmol/kg) vs. sCT (150 nmol/kg), Tukey", "result": -0.8046}, {"measurement": "Predicted (LS) mean diff., AP cFos after square root transformation", "setting": "[3]; RAMP 1/3 KO, sCT (150 nmol/kg) vs. Cagrilintide (3 nmol/kg), Tukey", "result": 5.384}, {"measurement": "Predicted (LS) mean diff., AP cFos after square root transformation", "setting": "[3]; WT, Vehicle vs. sCT (3 nmol/kg), Tukey", "result": -8.131}, {"measurement": "Predicted (LS) mean diff., AP cFos after square root transformation", "setting": "[3]; WT, Vehicle vs. sCT (150 nmol/kg), Tukey", "result": -7.632}, {"measurement": "Predicted (LS) mean diff., AP cFos after square root transformation", "setting": "[3]; WT, sCT (3 nmol/kg) vs. Cagrilintide (3 nmol/kg), Tukey", "result": 1.906}, {"measurement": "Predicted (LS) mean diff., AP cFos after square root transformation", "setting": "[3]; WT, sCT (3 nmol/kg) vs. sCT (150 nmol/kg), Tukey", "result": 0.4986}, {"measurement": "Predicted (LS) mean diff., AP cFos after square root transformation", "setting": "[3]; WT, sCT (150 nmol/kg) vs. Cagrilintide (3 nmol/kg), Tukey", "result": 1.408}, {"measurement": "Predicted (LS) mean diff., AP cFos after square root transformation", "setting": "[3]; sCT (3 nmol/kg), WT vs. RAMP 1/3 KO", "result": -0.1355}, {"measurement": "Predicted (LS) mean diff., AP cFos after square root transformation", "setting": "[3]; sCT (150 nmol/kg), WT vs. RAMP 1/3 KO", "result": -1.439}]}, {"compound": "Davalintide", "values": [{"measurement": "binding to AMYRs", "setting": "AMYRs and CTR", "result": "binds irreversibly"}]}]}
